# Experiments:
# Format in all cases: in vivo
# [1] = tested on: pigweed (Amaranthus retroflexus); experiment: Test A pre-/postemergence: pigweed
# Procedure, shortened: (§1)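 Pre: directed soil spray after planting in loam + sand. Post: same formulation (non-phytotoxic solvent + surfactant) on 1–2-leaf plants, 2–10 cm. Greenhouse ~10 d; visual injury 0–100 vs untreated.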
# [2] = tested on: nutsedge, yellow (yellow nutsedge, Cyperus esculentus); experiment: Test C pre-/postemergence: nutsedge, yellow
# Excerpt: (§2) Seeds of plant species selected from blackgrass (Alopecurus myosuroides), bromegrass, downy (downy bromegrass, Bromus tectorum), foxtail, green (green foxtail, Setaria viridis), ryegrass, Italian (Italian ryegrass, Lolium multiflorum), winter wheat (Triticum aestivum), wild oat (Avena fatua), galium (catchweed bedstraw, Galium aparine), bermudagrass (Cynodon dactylon), surinam grass (Brachiaria decumbens), cocklebur (common cocklebur, Xanthium strumarium), corn (Zea mays), large crabgrass (Digitaria sanguinalis), woolly cupgrass (Eriochloa villosa), foxtail, giant (giant foxtail, Setaria faberii), goosegrass (Eleusine indica), johnsongrass (Sorghum halepense), kochia (Kochia scoparia), lambsquarters (Chenopodium album), morningglory (Ipomoea coccinea), nightshade (eastern black nightshade, Solanum ptycanthum), nutsedge, yellow (yellow nutsedge, Cyperus esculentus), pigweed (Amaranthus retroflexus), ragweed (common ragweed, Ambrosia elation), soybean (Glycine max), common (oilseed) sunflower (Helianthus annuus), Russian thistle (Salsola kali) and velvetleaf (Abutilon theophrasti) were planted into a blend of loam soil and sand and treated preemergence with test chemicals formulated in a non-phytotoxic solvent mixture which included a surfactant.
# (§3) At the same time, plants selected from these crop and weed species and also barley (winter barley, Hordeum vulgare), canarygrass (Phalaris minor), chickweed (common chickweed, Stellaria media) windgrass (Apera spica-venti) and deadnettle (henbit deadnettle, Lamium amplexicaule) were planted in pots containing Redi-Earth® planting medium (Scotts Company, 14111 Scottslawn Road, Marysville, Ohio 43041) comprising spaghnum peat moss, vermiculite, wetting agent and starter nutrients and treated with postemergence applications of test chemicals formulated in the same manner. Plants ranged in height from 2 to 18 cm (1- to 4-leaf stage) for postemergence treatments.
# (§4) Treated plants and controls were maintained in a greenhouse for 13 to 15 days, after which time all species were compared to controls and visually evaluated. Plant response ratings, summarized in Table C, are based on a scale of 0 to 100 where 0 is no effect and 100 is complete control. A dash (-) response means no test result.
# [3] = tested on: winter wheat (Triticum aestivum); experiment: Test C pre-/postemergence: winter wheat
# Excerpt: as §2, §3, §4
# [4] = tested on: wheat (Triticum aestivum); experiment: Test A pre-/postemergence: wheat
# Procedure, shortened: as §1
# [5] = tested on: johnsongrass (Sorghum halepense); experiment: Test C pre-/postemergence: johnsongrass
# Excerpt: as §2, §3, §4
# [6] = tested on: morningglory (Ipomoea coccinea); experiment: Test C pre-/postemergence: morningglory
# Excerpt: as §2, §3, §4
# [7] = tested on: foxtail, giant (giant foxtail, Setaria faberii); experiment: Test A pre-/postemergence: foxtail, giant
# Procedure, shortened: as §1
# [8] = tested on: morningglory (Ipomoea spp.); experiment: Test A pre-/postemergence: morningglory
# Procedure, shortened: as §1
# [9] = tested on: barnyardgrass (Echinochloa crus-galli); experiment: Test A pre-/postemergence: barnyardgrass
# Procedure, shortened: as §1
# [10] = tested on: chickweed (common chickweed, Stellaria media); experiment: Test C postemergence: chickweed
# Excerpt: as §3, §4
# [11] = tested on: velvetleaf (Abutilon theophrasti); experiment: Test C pre-/postemergence: velvetleaf
# Excerpt: as §2, §3, §4
# corn (Zea mays) = experiment: Test C pre-/postemergence: corn; conditions: Preemergence
# Excerpt: as §2, §3, §4
# [12] = Postemergence, 125 g ai/ha, 0 to 100 scale, 0 is no effect, 100 is complete control
# [13] = Postemergence, 500 g ai/ha, visual rating on 0 to 100 scale (0 no effect, 100 complete control), approximately ten days
# [14] = Preemergence, 125 g ai/ha, 0 to 100 scale where 0 is no effect and 100 is complete control
# [15] = Preemergence, 500 g ai/ha, 0 to 100 scale (0 no effect, 100 complete control)
# [16] = Postemergence, 31 g ai/ha, scale 0 to 100 (0 no effect, 100 complete control)
# [17] = Postemergence, 62 g ai/ha, scale 0 to 100 (0 no effect, 100 complete control)
# [18] = Postemergence, 125 g ai/ha, scale 0 to 100, 0 no effect, 100 complete control
# [19] = Postemergence, 250 g ai/ha, scale 0 to 100
# [20] = 125 g ai/ha, scale 0 to 100, 0 no effect, 100 complete control
# [21] = Preemergence, 31 g ai/ha, scale of 0 to 100, 0 is no effect, 100 is complete control
# [22] = Preemergence, 62 g ai/ha, scale of 0 to 100, 0 is no effect, 100 is complete control
# [23] = Preemergence, 125 g ai/ha, scale 0 to 100, 0 no effect, 100 complete control
# [24] = Preemergence, 250 g ai/ha, scale 0 to 100, 0 no effect, 100 complete control
# [25] = 62 g ai/ha, scale of 0 to 100, 0 is no effect, 100 is complete control
# [26] = Postemergence, 500 g ai/ha, 0 to 100 scale, 0 is no effect, 100 is complete control
# [27] = Preemergence, 16 g ai/ha, scale 0 (no effect) to 100 (complete control)
# [28] = Preemergence, 31 g ai/ha, scale 0 (no effect) to 100 (complete control)
compound,measurement,setting,value
Cc1nn(-c2ccnc(C(F)(F)F)c2)nc1Cc1ccnc(C(F)(F)F)c1 [Compound 137],"Plant response rating, Pigweed",[1]; [12],100
same,Pigweed plant response rating,[1]; [13],100
same,"Plant response rating, Pigweed",[1]; [14],100
same,"Plant response rating, Pigweed",[1]; [15],100
same,"Plant response rating, Nutsedge, Yellow",[2]; [16],5
same,"Plant response rating, Nutsedge, Yellow",[2]; [17],10
same,"Plant response rating, Nutsedge, Yellow",[2]; [18],10
same,"Plant response rating, Nutsedge, Yellow",[2]; [19],15
same,"Plant response rating, Wheat",[3]; [16],10
same,"Plant response rating, Wheat",[3]; [17],15
same,"Plant response rating, Wheat",[3]; [18],30
same,"Plant response rating, Wheat",[3]; [19],35
same,"Plant response rating, Wheat",[4]; [12],20
same,Wheat plant response rating,[4]; [13],30
same,"Plant response rating, Wheat",[4]; [14],0
same,"Plant response rating, Wheat",[4]; [15],0
same,"Plant response rating, Johnsongrass",[5]; [16],5
same,"Plant response rating, Johnsongrass",[5]; [17],40
same,"Plant response rating, Johnsongrass",[5]; [18],80
same,"Plant response rating, Johnsongrass",[5]; [19],90
same,"Plant response rating, Morningglory",[6]; [17],60
same,"Plant response rating, Morningglory",[6]; [18],80
same,"Plant response rating, Morningglory",[6]; [19],90
same,"Foxtail, Giant plant response rating",[7]; [12],90
same,"Foxtail, Giant plant response rating",[7]; [13],90
same,"Plant response rating, Foxtail, Giant",[7]; [14],90
same,"Plant response rating, Foxtail, Giant",[7]; [15],90
same,"Plant response rating, Morningglory",[8]; [12],80
same,Morningglory plant response rating,[8]; [13],100
same,"Plant response rating, Morningglory",[8]; [14],40
same,"Plant response rating, Morningglory",[8]; [15],60
same,Barnyardgrass plant response rating,[9]; [12],70
same,Barnyardgrass plant response rating,[9]; [13],90
same,"Plant response rating, Barnyardgrass",[9]; [14],50
same,"Plant response rating, Barnyardgrass",[9]; [15],70
same,"Plant response rating, Chickweed","[10]; 31 g ai/ha, scale 0 to 100 (0 no effect, 100 complete control)",70
same,"Plant response rating, Chickweed","[10]; 62 g ai/ha, scale 0 to 100 (0 no effect, 100 complete control)",80
same,"Plant response rating, Chickweed",[10]; [20],98
same,"Plant response rating, Chickweed","[10]; 250 g ai/ha, scale 0 to 100",98
same,"Plant response rating, Velvetleaf",[11]; [16],35
same,"Plant response rating, Velvetleaf",[11]; [17],55
same,"Plant response rating, Velvetleaf",[11]; [18],55
same,"Plant response rating, Velvetleaf",[11]; [19],70
Cc1nn(-c2ccc(F)c(C(F)(F)F)c2)nc1Oc1ccnc(C(F)(F)F)c1 [Compound 147],"Plant response rating, Pigweed",[1]; [12],100
same,Pigweed plant response rating,[1]; [13],100
same,"Plant response rating, Pigweed",[1]; [14],100
same,"Plant response rating, Pigweed",[1]; [15],100
same,"Plant response rating, Nutsedge, Yellow",[2]; [21],0
same,"Plant response rating, Nutsedge, Yellow",[2]; [22],0
same,"Plant response rating, Nutsedge, Yellow",[2]; [23],0
same,"Plant response rating, Nutsedge, Yellow",[2]; [24],15
same,"Plant response rating, Wheat",[3]; [22],5
same,"Plant response rating, Wheat",[3]; [23],30
same,"Plant response rating, Wheat",[3]; [24],45
same,"Plant response rating, Wheat",[4]; [12],20
same,Wheat plant response rating,[4]; [13],50
same,"Plant response rating, Wheat",[4]; [14],30
same,"Plant response rating, Wheat",[4]; [15],50
same,"Plant response rating, Johnsongrass",[5]; [21],40
same,"Plant response rating, Johnsongrass",[5]; [22],55
same,"Plant response rating, Johnsongrass",[5]; [23],95
same,"Plant response rating, Johnsongrass",[5]; [24],98
same,"Plant response rating, Morningglory",[6]; [21],30
same,"Plant response rating, Morningglory",[6]; [22],30
same,"Plant response rating, Morningglory",[6]; [24],35
same,"Foxtail, Giant plant response rating",[7]; [12],70
same,"Foxtail, Giant plant response rating",[7]; [13],80
same,"Plant response rating, Foxtail, Giant",[7]; [14],100
same,"Plant response rating, Foxtail, Giant",[7]; [15],100
same,"Plant response rating, Morningglory",[8]; [12],90
same,Morningglory plant response rating,[8]; [13],90
same,"Plant response rating, Morningglory",[8]; [15],80
same,Barnyardgrass plant response rating,[9]; [12],80
same,Barnyardgrass plant response rating,[9]; [13],80
same,"Plant response rating, Barnyardgrass",[9]; [14],90
same,"Plant response rating, Barnyardgrass",[9]; [15],100
same,"Plant response rating, Corn","corn (Zea mays); 31 g ai/ha, scale of 0 to 100, 0 is no effect, 100 is complete control",10
same,"Plant response rating, Corn",corn (Zea mays); [25],10
same,"Plant response rating, Corn",corn (Zea mays); [20],25
same,"Plant response rating, Corn","corn (Zea mays); 250 g ai/ha, scale 0 to 100, 0 no effect, 100 complete control",35
same,"Plant response rating, Velvetleaf",[11]; [21],25
same,"Plant response rating, Velvetleaf",[11]; [22],55
same,"Plant response rating, Velvetleaf",[11]; [23],60
same,"Plant response rating, Velvetleaf",[11]; [24],100
CCOc1nn(-c2ccc(Br)cc2)nc1Cc1ccnc(C(F)(F)F)c1 [Compound 189],"Plant response rating, Pigweed",[1]; [12],100
same,Pigweed plant response rating,[1]; [26],100
same,"Plant response rating, Pigweed",[1]; [14],100
same,"Plant response rating, Pigweed",[1]; [15],100
same,"Plant response rating, Nutsedge, Yellow",[2]; [27],0
same,"Plant response rating, Nutsedge, Yellow",[2]; [28],0
same,"Plant response rating, Nutsedge, Yellow",[2]; [22],0
same,"Plant response rating, Nutsedge, Yellow",[2]; [23],0
same,"Plant response rating, Wheat",[3]; [27],0
same,"Plant response rating, Wheat",[3]; [28],5
same,"Plant response rating, Wheat",[3]; [22],15
same,"Plant response rating, Wheat",[3]; [23],30
same,"Plant response rating, Wheat",[4]; [12],50
same,Wheat plant response rating,[4]; [26],60
same,"Plant response rating, Wheat",[4]; [14],20
same,"Plant response rating, Wheat",[4]; [15],50
same,"Plant response rating, Johnsongrass",[5]; [27],30
same,"Plant response rating, Johnsongrass",[5]; [28],50
same,"Plant response rating, Johnsongrass",[5]; [22],85
same,"Plant response rating, Johnsongrass",[5]; [23],85
same,"Plant response rating, Morningglory",[6]; [28],10
same,"Plant response rating, Morningglory",[6]; [22],40
same,"Plant response rating, Morningglory",[6]; [23],60
same,"Plant response rating, Foxtail, Giant",[7]; [12],90
same,"Foxtail, Giant plant response rating",[7]; [26],90
same,"Plant response rating, Foxtail, Giant",[7]; [14],100
same,"Plant response rating, Foxtail, Giant",[7]; [15],100
same,"Plant response rating, Morningglory",[8]; [12],60
same,Morningglory plant response rating,[8]; [26],80
same,"Plant response rating, Morningglory",[8]; [14],20
same,"Plant response rating, Morningglory",[8]; [15],30
same,"Plant response rating, Barnyardgrass",[9]; [12],60
same,Barnyardgrass plant response rating,[9]; [26],80
same,"Plant response rating, Barnyardgrass",[9]; [14],80
same,"Plant response rating, Barnyardgrass",[9]; [15],90
same,"Plant response rating, Corn","corn (Zea mays); 16 g ai/ha, scale 0 (no effect) to 100 (complete control)",5
same,"Plant response rating, Corn","corn (Zea mays); 31 g ai/ha, scale 0 (no effect) to 100 (complete control)",5
same,"Plant response rating, Corn",corn (Zea mays); [25],15
same,"Plant response rating, Corn",corn (Zea mays); [20],20
same,"Plant response rating, Velvetleaf",[11]; [27],10
same,"Plant response rating, Velvetleaf",[11]; [28],15
same,"Plant response rating, Velvetleaf",[11]; [22],40
same,"Plant response rating, Velvetleaf",[11]; [23],60
